Source: patent publication US20120022121A1, “INDOLES, DERIVATIVES AND ANALOGS THEREOF AND USES THEREFOR” (priority 2007, published 2012)

Experiments:
[1] = test system: DU-145; assay: Cell viability SRB assay, 96 h; assay type: cell-based; conditions: Homo sapiens, DU-145, 96 h
Method: (§1) Cell viability (LNCaP, PC-3 prostate, DU145, PPC-1, and TSU-Pr1 prostate cancer cell lines, HT-29 colon cancer cell line, and MCF-7 breast cancer cell line) was quantitated using the sulforhodamine B (SRB) assay after 96 h coincubation with different concentrations of compound in 96-well plates. Cell viability of leukemia cells (K562 and doxorubicin-resistant K562/Dox) was quantitated by MTT assay after 96 h coincubation with different concentrations of compound in 96-well plates. Drug-induced apoptosis was determined by anti-histone ELISA assay and DNA laddering. Cell cycle progression was assessed by propidium iodide staining and fluorescence-activated cell sorting (FACS) analysis. In vitro tubulin polymerization assay was determined by CytoDYNAMIX ScreenTM3 (CDS-03) kits according to the manufacturer's instructions. Anti-apoptosis protein (Bcl-2 and Bcl-xl) and pro-apoptosis protein (Bax) were examined in LNCaP and PC-3 after 24 h incubation with different concentrations of compound 13 by Western blot assay. In vivo PC-3 xenograft studies were conducted by i.v. dosing of 50 mg/kg, 100 mg/kg and 150 mg/kg for 2 weeks.
(§2) Cells were plated in 96-well plates at a density of 800-5,000 cells/well, depending on the cell line, in their required growth media containing 10% fetal bovine serum. Preliminary studies were performed with each cell line using a variety of cell densities and incubation times to determine appropriate seeding densities. The compound of interest was dissolved in DMSO, diluted in cell culture medium (final DMSO concentration was less than 0.5% v/v), and added to quadruplicate wells at final concentrations ranging from 0 to 100 μM. Control wells to which only drug-free vehicle was added were included as negative controls.
(§3) Cells were incubated for 96 hour at 37° C. in a humidified atmosphere containing 5% carbon dioxide.
(§4) Cells were stained with SRB solution. […] WinNonlin was provided by a Pharsight Academic License to The Ohio State University.

[2] = test system: LNCaP; assay: Cell viability SRB assay, 96 h; assay type: cell-based; conditions: Homo sapiens
Method: as §1, §2, §3, §4

[3] = test system: PPC-1; assay: Cell viability SRB assay, 96 h; assay type: cell-based; conditions: Homo sapiens, PPC-1, 96 h
Method: as §1, §2, §3, §4

[4] = test system: PC-3; assay: Cell viability SRB assay, 96 h; assay type: cell-based; conditions: Homo sapiens, PC-3, 96 h
Method: as §1, §2, §3, §4

[5] = test system: TSU; assay: Cell viability SRB assay, 96 h; assay type: cell-based; conditions: Homo sapiens, TSU (TSU-Pr1)
Method: as §1, §2, §3, §4

| Compound | melting point [°C] | IC50 [1] [µM] | IC50 [2] [µM] | IC50 [3] [µM] | IC50 [4] [µM] | IC50 [5] [µM] |
| --- | --- | --- | --- | --- | --- | --- |
| OC(c1cccc(-c2cc3ccccc3[nH]2)c1)c1cc2ccccc2[nH]1 (stereo not drawn) [Compound 11, (1H-indol-2-yl)-[3-(1H-indol-2-yl)phenyl]methanol] | 82 to 85 | 11.6 | 5.6 | 3.8 | 13.5 | – |
| COC(=O)c1csc(C(=O)c2c[nH]c3ccccc23)n1 [Compound 59, methyl 2-(1H-indole-3-carbonyl)thiazole-4-carboxylate] | – | – | 58.5 ± 14.3 | – | 90.4 ± 27.5 | – |
| COc1cc(-c2cccc(C(O)c3cc4ccccc4n3S(=O)(=O)c3ccccc3)c2)cc(OC)c1OC (stereo not drawn) [Compound 63, (1-Benzenesulfonyl-1H-indol-2-yl)-(3′,4′,5′-trimethoxy-biphenyl-3-yl)-methanol] | – | 38 | 4.2 | 21.8 | 11.6 | – |
| COc1cc(-c2cccc(C(=O)c3cc4ccccc4n3S(=O)(=O)c3ccccc3)c2)cc(OC)c1OC [Compound 64, (1-Benzenesulfonyl-1H-indol-2-yl)-(3′,4′,5′-trimethoxy-biphenyl-3-yl)-methanone] | – | 29.2 | 4.9 | 44.7 | 29.2 | 58.9 |
| COc1cc(-c2cccc(C(=O)c3cc4ccccc4[nH]3)c2)cc(OC)c1OC [Compound 65, (1H-Indol-2-yl)-(3′,4′,5′-trimethoxy-biphenyl-3-yl)-methanone] | – | 16.2 | 3 | 4.1 | 4.6 | – |
| COc1cc(C(O)c2cccc(-c3cc4ccccc4n3S(=O)(=O)c3ccccc3)c2)cc(OC)c1OC (stereo not drawn) [Compound 66, [3-(1-Benzenesulfonyl-1H-indol-2-yl)-phenyl]-(3,4,5-trimethoxy-phenyl)-methanol] | – | 61.5 | 10.1 | 35.3 | 45 | – |
| COc1cc(C(O)c2cccc(-c3cc4ccccc4[nH]3)c2)cc(OC)c1OC (stereo not drawn) [Compound 66A, [3-(1H-Indol-2-yl)-phenyl]-(3,4,5-trimethoxy-phenyl)-methanol] | – | 7.2 | 3.1 | 1.9 | 5.9 | – |
| COc1cc(C(=O)c2cccc(-c3cc4ccccc4n3S(=O)(=O)c3ccccc3)c2)cc(OC)c1OC [Compound 67, [3-(1-Benzenesulfonyl-1H-indol-2-yl)-phenyl]-(3,4,5-trimethoxy-phenyl)-methanone] | – | 18 | 7.8 | 68.5 | 9.2 | – |
| O=C(c1ccccc1)c1cccc(-c2cc3ccccc3[nH]2)c1 [Compound 80A, [3-(1H-Indol-2-yl)-phenyl]-phenyl-methanone] | – | 2.12 | 1.74 | 1.52 | 2 | – |
| COc1ccc(C(=O)c2cccc(-c3cc4ccccc4[nH]3)c2)cc1 [Compound 84, [3-(1H-Indol-2-yl)-phenyl]-(4-methoxy-phenyl)-methanone] | – | 1.4 | 3.7 | 0.9 | 2.6 | – |
| O=C(c1ccc(F)cc1)c1cccc(-c2ccc3[nH]ccc3c2)c1 [Compound 125, (4-Fluoro-phenyl)-[3-(1H-indol-5-yl)-phenyl]-methanone] | – | 5.73 | 2.78 | 0.63 | 2.7 | – |
| O=C(c1ccc(F)cc1)c1cccc(-c2cc3ccccc3n2S(=O)(=O)c2ccccc2)c1 [Compound 126, [3-(1-Benzenesulfonyl-1H-indol-2-yl)-phenyl]-(4-fluoro-phenyl)-methanone] | – | 4.01 | 1.56 | 0.55 | 1.5 | – |
| OCc1cccc(-c2cc3ccccc3[nH]2)c1 [Compound 130] | – | 21.8 | 23.8 ± 3 | 26.6 | 65.1 ± 5.3 | – |
| c1ccc2[nH]ccc2c1 [indole] | – | > 100 | > 100 | > 100 | > 100 | > 100 |
